Laboratory results from PubChem BioAssay AID1963433 (Molecular Pharmacology Branch, DTP, NCI, 2024).
Values joined by “and” are separate entries in the source; they are usually repeats but may differ in a detail not shown here. Identical values can stand only once.

Test system: 772245-204-R-J1-PDC complex spheroid growth
Assay: Anticancer human tumor 772245-204-R-J1-PDC patient-derived rhabdomyosarcoma cell line growth inhibition [Asc]
Details: for viability, T/C: stronger effect = lower value
Outline: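 Complex solid-tumor spheroids incorporating human endothelial and mesenchymal stem cells received single agents or combinations over half-log dilution ranges anchored to clinical Cmax.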

[1] = curve of first compound, second compound 0.01 µM
[2] = curve of first compound, second compound 0.0316 µM
[3] = curve of first compound, second compound 0.1 µM
[4] = curve of first compound, second compound 0.316 µM
[5] = curve of first compound, second compound 1 µM
[6] = second compound 0.01 µM, first compound 0.0316 µM
[7] = second compound 0.01 µM, first compound 0.1 µM
[8] = second compound 0.0316 µM, first compound 0.0316 µM
[9] = second compound 0.0316 µM, first compound 0.1 µM
[10] = second compound 0.1 µM, first compound 0.0316 µM
[11] = second compound 0.1 µM, first compound 0.1 µM
[12] = second compound 0.316 µM, first compound 0.0316 µM
[13] = second compound 0.316 µM, first compound 0.1 µM
[14] = second compound 1 µM, first compound 0.0316 µM
[15] = second compound 1 µM, first compound 0.1 µM
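Note: compound exposure lasted seven days.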
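Throughout, for viability, T/C: 100% = DMSO vehicle control viability.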

With C=CC(=O)N1CCN(c2nc(=O)n(-c3c(C)ccnc3C(C)C)c3nc(-c4c(O)cccc4F)c(F)cc23)C(C)C1 (stereo not given) the viability, T/C (compound 0.0316 µM) was 91.4% and 88.5% and 102%, the viability, T/C (compound 0.1 µM) was 97.5% and 109% and 89.4% and the viability, T/C (compound 0.316 µM) was 95.3% and 97% and 98%. The viability, T/C (compound 1 µM) was 90.4% and 101% and 97.3%, the viability, T/C (compound 3.16 µM) was 90.9% and 102% and 111% and the viability, T/C (compound 10 µM) was 79.6% and 97.6% and 109%. It also gave an IC50 (curve of compound) of over 10 µM.

Work on Cn1ncnc1[C@H]1c2n[nH]c(=O)c3cc(F)cc(c23)N[C@@H]1c1ccc(F)cc1 + CNC(C)C(=O)NC1CN(S(=O)(=O)c2cccc(S(=O)(=O)N3CCC4CCC(C(=O)NC(c5ccccc5)c5ccccc5)N4C(=O)C(NC(=O)C(C)NC)C3)c2)CCC2CCC(C(=O)NC(c3ccccc3)c3ccccc3)N2C1=O yielded an IC50 [1] of over 0.1 µM, an IC50 [2] of over 0.1 µM and an IC50 [3] of over 0.1 µM. The IC50 [4] was over 0.1 µM, the IC50 [5] was over 0.1 µM and the viability, T/C (second compound 0.01 µM, first compound 0.000316 µM) was 85.5%. The viability, T/C (second compound 0.01 µM, first compound 0.001 µM) was 83.7%, the viability, T/C (second compound 0.01 µM, first compound 0.00316 µM) was 91.7% and the viability, T/C (second compound 0.01 µM, first compound 0.01 µM) was 90%. For the same compound, the viability, T/C [6] was 91%, the viability, T/C [7] was 76.1% and the viability, T/C (second compound 0.0316 µM, first compound 0.000316 µM) was 98.9%. The viability, T/C (second compound 0.0316 µM, first compound 0.001 µM) was 94.9%, the viability, T/C (second compound 0.0316 µM, first compound 0.00316 µM) was 99.7% and the viability, T/C (second compound 0.0316 µM, first compound 0.01 µM) was 97.1%. It also gave a viability, T/C [8] of 85%, a viability, T/C [9] of 94.2% and a viability, T/C (second compound 0.1 µM, first compound 0.000316 µM) of 97%. The viability, T/C (second compound 0.1 µM, first compound 0.001 µM) was 96.6%, the viability, T/C (second compound 0.1 µM, first compound 0.00316 µM) was 85.7% and the viability, T/C (second compound 0.1 µM, first compound 0.01 µM) was 102%. For the same compound, the viability, T/C [10] was 81.7%, the viability, T/C [11] was 79.4% and the viability, T/C (second compound 0.316 µM, first compound 0.000316 µM) was 97.3%. The viability, T/C (second compound 0.316 µM, first compound 0.001 µM) was 96.2%, the viability, T/C (second compound 0.316 µM, first compound 0.00316 µM) was 96.1% and the viability, T/C (second compound 0.316 µM, first compound 0.01 µM) was 82.2%. For the same compound, the viability, T/C [12] was 89.2%, the viability, T/C [13] was 94.4% and the viability, T/C (second compound 1 µM, first compound 0.000316 µM) was 112%. It also gave a viability, T/C (second compound 1 µM, first compound 0.001 µM) of 88.4%, a viability, T/C (second compound 1 µM, first compound 0.00316 µM) of 97.8% and a viability, T/C (second compound 1 µM, first compound 0.01 µM) of 85.3%. For the same compound, the viability, T/C [14] was 84.2% and the viability, T/C [15] was 85.6%.

Work on C=CC(=O)N1CCN(c2nc(=O)n(-c3c(C)ccnc3C(C)C)c3nc(-c4c(O)cccc4F)c(F)cc23)C(C)C1 (stereo not given) + CNC(C)C(=O)NC1CN(S(=O)(=O)c2cccc(S(=O)(=O)N3CCC4CCC(C(=O)NC(c5ccccc5)c5ccccc5)N4C(=O)C(NC(=O)C(C)NC)C3)c2)CCC2CCC(C(=O)NC(c3ccccc3)c3ccccc3)N2C1=O yielded an IC50 [1] of over 10 µM, an IC50 [2] of over 10 µM and an IC50 [3] of over 10 µM. It also gave an IC50 [4] of over 10 µM, an IC50 [5] of over 10 µM and a viability, T/C [6] of 98.5%. It also gave a viability, T/C [7] of 84.7%, a viability, T/C (second compound 0.01 µM, first compound 0.316 µM) of 91.6% and a viability, T/C (second compound 0.01 µM, first compound 1 µM) of 100%. For the same compound, the viability, T/C (second compound 0.01 µM, first compound 3.16 µM) was 92%, the viability, T/C (second compound 0.01 µM, first compound 10 µM) was 89% and the viability, T/C [8] was 94.4%. It also gave a viability, T/C [9] of 93.6%, a viability, T/C (second compound 0.0316 µM, first compound 0.316 µM) of 101% and a viability, T/C (second compound 0.0316 µM, first compound 1 µM) of 92.7%. For the same compound, the viability, T/C (second compound 0.0316 µM, first compound 3.16 µM) was 101%, the viability, T/C (second compound 0.0316 µM, first compound 10 µM) was 90.6% and the viability, T/C [10] was 92%. The viability, T/C [11] was 88.9%, the viability, T/C (second compound 0.1 µM, first compound 0.316 µM) was 108% and the viability, T/C (second compound 0.1 µM, first compound 1 µM) was 97.2%. The viability, T/C (second compound 0.1 µM, first compound 3.16 µM) was 88.8%, the viability, T/C (second compound 0.1 µM, first compound 10 µM) was 92.2% and the viability, T/C [12] was 94.5%. For the same compound, the viability, T/C [13] was 95.5%, the viability, T/C (second compound 0.316 µM, first compound 0.316 µM) was 97.6% and the viability, T/C (second compound 0.316 µM, first compound 1 µM) was 103%. It also gave a viability, T/C (second compound 0.316 µM, first compound 3.16 µM) of 95.7%, a viability, T/C (second compound 0.316 µM, first compound 10 µM) of 80.1% and a viability, T/C [14] of 106%. The viability, T/C [15] was 94.3%, the viability, T/C (second compound 1 µM, first compound 0.316 µM) was 101% and the viability, T/C (second compound 1 µM, first compound 1 µM) was 97.2%. The viability, T/C (second compound 1 µM, first compound 3.16 µM) was 88.9% and the viability, T/C (second compound 1 µM, first compound 10 µM) was 95%.

In the case of COc1c(OCCCN2CCOCC2)ccc2c3n(c(=NC(=O)c4cnc(N)nc4)nc12)CCN3, the viability, T/C (compound 0.00316 µM) is reported as 94.7% and 116% and 107%, the viability, T/C (compound 0.01 µM) is reported as 91.3% and 98.9% and 106% and the viability, T/C (compound 0.0316 µM) is reported as 77% and 76.2% and 90.4%. For the same compound, the viability, T/C (compound 0.1 µM) was 46.1% and 55.2% and 63.9%, the viability, T/C (compound 0.316 µM) was 41.3% and 42% and 43.8% and the viability, T/C (compound 1 µM) was 24.4% and 25.4% and 35.3%. For the same compound, the IC50 (curve of compound) was 0.105 µM and 0.175 µM and 0.217 µM.

For NC(=O)C(=Cn1cnc(-c2cc(C(F)(F)F)cc(C(F)(F)F)c2)n1)c1cncnc1 + Cc1c(S(C)(=O)=O)c(-c2cc(F)cc(N3CCN(c4ccc(NS(=O)(=O)c5ccc(NC(CCN6CCC(C(=O)OCCCP(=O)(O)O)CC6)CSc6ccccc6)c(S(=O)(=O)C(F)(F)F)c5)cc4)CC3)c2)c(-c2ccc(Cl)cc2)n1C(C)C, the IC50 [3] was 0.022 µM, the IC50 [4] was 0.00658 µM and the IC50 [5] was under 0.000949 µM. It also gave an IC50 (curve of first compound, second compound 3.16 µM) of under 0.000949 µM, an IC50 (curve of first compound, second compound 10 µM) of under 0.000949 µM and a viability, T/C (second compound 0.1 µM, first compound 0.000949 µM) of 80.2%. For the same compound, the viability, T/C (second compound 0.1 µM, first compound 0.003 µM) was 72.2%, the viability, T/C (second compound 0.1 µM, first compound 0.00949 µM) was 64% and the viability, T/C (second compound 0.1 µM, first compound 0.03 µM) was 43.2%. For the same compound, the viability, T/C (second compound 0.1 µM, first compound 0.0949 µM) was 29.6%, the viability, T/C (second compound 0.1 µM, first compound 0.3 µM) was 12.6% and the viability, T/C (second compound 0.316 µM, first compound 0.000949 µM) was 58.1%. The viability, T/C (second compound 0.316 µM, first compound 0.003 µM) was 64%, the viability, T/C (second compound 0.316 µM, first compound 0.00949 µM) was 42.1% and the viability, T/C (second compound 0.316 µM, first compound 0.03 µM) was 29.2%. For the same compound, the viability, T/C (second compound 0.316 µM, first compound 0.0949 µM) was 10.3%, the viability, T/C (second compound 0.316 µM, first compound 0.3 µM) was 3.73% and the viability, T/C (second compound 1 µM, first compound 0.000949 µM) was 41.2%. It also gave a viability, T/C (second compound 1 µM, first compound 0.003 µM) of 34.8%, a viability, T/C (second compound 1 µM, first compound 0.00949 µM) of 24% and a viability, T/C (second compound 1 µM, first compound 0.03 µM) of 8.43%. For the same compound, the viability, T/C (second compound 1 µM, first compound 0.0949 µM) was 4.25%, the viability, T/C (second compound 1 µM, first compound 0.3 µM) was 1.91% and the viability, T/C (second compound 3.16 µM, first compound 0.000949 µM) was 42.5%. For the same compound, the viability, T/C (second compound 3.16 µM, first compound 0.003 µM) was 27.8%, the viability, T/C (second compound 3.16 µM, first compound 0.00949 µM) was 23.9% and the viability, T/C (second compound 3.16 µM, first compound 0.03 µM) was 2.44%. The viability, T/C (second compound 3.16 µM, first compound 0.0949 µM) was 0.58%, the viability, T/C (second compound 3.16 µM, first compound 0.3 µM) was 0.81% and the viability, T/C (second compound 10 µM, first compound 0.000949 µM) was 32.9%. It also gave a viability, T/C (second compound 10 µM, first compound 0.003 µM) of 39.9%, a viability, T/C (second compound 10 µM, first compound 0.00949 µM) of 22.2% and a viability, T/C (second compound 10 µM, first compound 0.03 µM) of 5.99%. For the same compound, the viability, T/C (second compound 10 µM, first compound 0.0949 µM) was 0.9% and the viability, T/C (second compound 10 µM, first compound 0.3 µM) was 0.59%.

In the case of C=C(F)C(=O)N1CCN(c2nc(OCC3CCCN3C)nc3c2CCN(c2cccc4cccc(Cl)c24)C3)CC1CC#N (stereo not given), the viability, T/C (compound 0.0316 µM) is reported as 92.1% and 101% and 100%, the viability, T/C (compound 0.1 µM) is reported as 85.8% and 91.9% and 89.9% and the viability, T/C (compound 0.316 µM) is reported as 77.3% and 99.5% and 104%. For the same compound, the viability, T/C (compound 1 µM) was 87.6% and 98.4% and 95.1%, the viability, T/C (compound 3.16 µM) was 62.3% and 76.7% and 101% and the IC50 (curve of compound) was 3.97 µM and 4.73 µM and 7.91 µM.

In the case of Cc1nc(N2CCC3(CC2)COC(C)C3N)c(CO)nc1Sc1ccnc(N)c1Cl (stereo not given), the viability, T/C (compound 0.00949 µM) is reported as 98.8% and 123% and 100%, the viability, T/C (compound 0.03 µM) is reported as 104% and 119% and 120% and the viability, T/C (compound 0.0949 µM) is reported as 112% and 104% and 89.2%. The viability, T/C (compound 0.3 µM) was 106% and 90.1% and 102%, the viability, T/C (compound 0.949 µM) was 99.9% and 85.1% and 77% and the viability, T/C (compound 3 µM) was 91.5% and 57.5% and 54.3%. The IC50 (curve of compound) was over 3 µM.

For CCN1C(C(=O)NC23CCC(C(=O)O)(CC2)CC3)C(c2cccc(Cl)c2F)C2(C(=O)Nc3cc(Cl)ccc32)C12CCCCC2 (stereo not given), the viability, T/C (compound 0.00949 µM) was 107% and 93.5%, the IC50 (compound alone, run of 10/11/2022) was over 3 µM and the IC50 (curve of compound) was over 3 µM.
